Activity calls are given as the source filed them.
Legend:
[1] = tested on: Rattus norvegicus; assay: Ganglionic muscarinic activity was determined by the changes in mean arterial blood pressure of the pithed rat treated with to produce a half-maximal pressure response up i.v. administration; assay type: functional; details: iv
[2] = molecular target: T1, Muscarinic acetylcholine receptor (Homo sapiens) (UniProt P20309+P08173+P11229+P08172+P08912); assay: Tested in vitro for agonistic activity of compound towards muscarinic receptor in the concentration range of 1xe-6 to 1xe-4 M of guinea pig ileum; Responce varied in the range 17- 40%; assay type: functional, tissue-based; details: Cavia porcellus, filed as partial agonist, target entry is the homologue from another species
[3] = Equipotent molar ratio relative to carbachol for nicotininc activity in frog was determined; assay type: functional
[4] = tested on: Rattus norvegicus; assay: Ganglionic muscarinic activity was determined by the changes in mean arterial blood pressure of the pithed rat treated with to produce a half-maximal pressure response up i.v. administration; Inactive when assayed a dose range of 1-10 umol/Kg; assay type: functional, organism-based
[5] = molecular target: T1, Muscarinic acetylcholine receptor (Homo sapiens); assay: Tested in vitro for agonistic activity of compound towards muscarinic receptor in the concentration range of 1xe-6 to 1xe-4 M of guinea pig ileum; Inactive; assay type: functional, tissue-based; details: Cavia porcellus, target entry is the homologue from another species

C[N+](C)(C)CC#CCOC(=O)Nc1cccc(Cl)c1
ED50 [1]: 0.59 µmol/kg

C[N+](C)(C)CC#CCOC(=O)Nc1cccc(Br)c1
ED50 [1]: 0.7 µmol/kg
Max respose [2]: Partial agonist
Ratio [3]: 4

CN(C)CC#CCOC(=O)Nc1ccc(Br)cc1
ED50 [4]: Inactive when assayed a dose range of 1-10 umol/Kg

CN(C)CC#CCOC(=O)Nc1cccc(Br)c1
ED50 [4]: Inactive when assayed a dose range of 1-10 umol/Kg

C[S+](C)CC#CCOC(=O)Nc1cccc(Br)c1.[O-][Cl+3]([O-])([O-])[O-]
ED50 [1]: 1.47 µmol/kg
Max respose [5]: inactive

C[S+](C)CC#CCOC(=O)Nc1ccc(Br)cc1.[O-][Cl+3]([O-])([O-])[O-]
ED50 [1]: 1.56 µmol/kg
Max respose [5]: inactive

C[N+](C)(C)CC#CCOC(=O)Nc1ccc(Br)cc1
ED50 [1]: 0.22 µmol/kg
Max respose [2]: Partial agonist
Ratio [3]: 3.7

C[S+](C)CC#CCOC(=O)Nc1cccc(Cl)c1.[O-][Cl+3]([O-])([O-])[O-]
ED50 [1]: 1.49 µmol/kg
Max respose [5]: inactive

C[S+](C)CC#CCOC(=O)Nc1ccc(Cl)cc1.[O-][Cl+3]([O-])([O-])[O-]
ED50 [1]: 1.52 µmol/kg
Max respose [5]: inactive

— ChEMBL document CHEMBL1124530, “Dimethylsulfonium analogues of the muscarinic agent McN-A-343: [4-[[N-(3- or 4-halophenyl)carbamoyl]oxy]-2-butynyl] dimethylsulfonium perchlorates” (1989)
